Molecular target: T1, Jak3 enzyme (aa 811-1103) (Homo sapiens, UniProt P52333)
T1 construct: Jak3 enzyme (aa 811-1103); expressed in SF9 cells as a GST fusion; GST; made in house; host or cells: SF9 insect cells
Test: In vitro Jak3 kinase activity measured by time-resolved fluorescence resonance energy transfer (trFRET)
Assay type: biochemical
Conditions: ATP 0.001 mM
Procedure: In Vitro Jak3 Kinase Activity Measured by Time-Resolved Fluorescence Resonance Energy Transfer (trFRET)
Varying concentrations of inhibitor were added to an assay well containing: Jak3 enzyme (aa 811-1103; expressed in SF9 cells as a GST fusion and purified by glutathione affinity chromatography; 3 nM), peptide substrate (biotin-TYR2, Sequence: Biotin-(Ahx)-AEEEYFFLFA-amide; 2 μM), MOPSO pH 6.5 (50 mM), MgCl2 (10 mM), MnCl2 (2 mM), DTT (2.5 mM), BSA (0.01% w/v), Na3VO4 (0.1 mM) and ATP (0.001 mM). After about 60 min incubation at rt, the reaction was quenched by addition of EDTA (final concentration: 100 mM) and developed by addition of revelation reagents (final approximate concentrations: 30 mM HEPES pH 7.0, 0.06% BSA, 0.006% Tween-20, 0.24 M KF, 80 ng/mL PT66K (europium labeled anti-phosphotyrosine antibody cat #61T66KLB Cisbio, Bedford, Mass.) and 0.8 μg/mL SAXL (Phycolink streptavidin-allophycocyanin acceptor, cat #PJ52S, Prozyme, San Leandro, Calif.). The developed reaction was incubated in the dark either at about 4° C., for about 14 h or for about 60 min at rt, then read via a time-resolved fluorescence detector (Rubystar, BMG) using a 337 nm laser for excitation and emission wavelength of 665 nm. Within the linear range of the assay, the observed signal at 665 nm is directly related to phosphorylated product and used to calculate the IC50 values.

T1 sequence (P52333 811-1103): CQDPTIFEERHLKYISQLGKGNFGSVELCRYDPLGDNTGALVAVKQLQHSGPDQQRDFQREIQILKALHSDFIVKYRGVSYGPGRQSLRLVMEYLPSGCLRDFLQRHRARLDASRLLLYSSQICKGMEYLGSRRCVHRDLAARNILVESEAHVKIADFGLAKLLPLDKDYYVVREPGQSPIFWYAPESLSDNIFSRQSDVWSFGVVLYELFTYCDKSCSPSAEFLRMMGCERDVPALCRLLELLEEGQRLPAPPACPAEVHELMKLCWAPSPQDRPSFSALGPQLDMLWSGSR

Compound	IC50 (Table B) [µM]	IC50 [µM]
CC[C@@H]1C[C@H](NC(=O)c2ccno2)C[C@@H]1c1nnc2cnc3[nH]ccc3n12 [compound 50, N-((1S,3R,4S)-3-ethyl-4-(6H-pyrrolo[2,3-e][1,2,4]triazolo[4,3-a]pyrazin-1-yl)cyclopentyl)isoxazole-5-carboxamide]	1 to 10	–
CC[C@@H]1C[C@H](NC(=O)c2cnoc2C2CC2)C[C@@H]1c1nnc2cnc3[nH]ccc3n12 [compound 66, 5-cyclopropyl-N-((1S,3R,4S)-3-ethyl-4-(6H-pyrrolo[2,3-e][1,2,4]triazolo[4,3-a]pyrazin-1-yl)cyclopentyl)isoxazole-4-carboxamide]	1 to 10	–
CC[C@@H]1C[C@H](NC(=O)CCC2CCC2)C[C@@H]1c1nnc2cnc3[nH]ccc3n12 [compound 67, 3-cyclobutyl-N-((1S,3R,4S)-3-ethyl-4-(6H-pyrrolo[2,3-e][1,2,4]triazolo[4,3-a]pyrazin-1-yl)cyclopentyl)propanamide]	1 to 10	–
CC[C@@H]1C[C@@H](CCC#N)C[C@@H]1c1nnc2cnc3[nH]ccc3n12 [Example #23, 3-((1R,3R,4S)-3-ethyl-4-(6H-pyrrolo[2,3-e][1,2,4]triazolo[4,3-a]pyrazin-1-yl)cyclopentyl)propanenitrile]	–	1 to 10
CC[C@@H]1C[C@H](NC(=O)c2ncoc2C2CC2)C[C@@H]1c1nnc2cnc3[nH]ccc3n12 [compound 47, 5-cyclopropyl-N-((1S,3R,4S)-3-ethyl-4-(6H-pyrrolo[2,3-e][1,2,4]triazolo[4,3-a]pyrazin-1-yl)cyclopentyl)oxazole-4-carboxamide]	> 10	–
C[C@@H]1C[C@H](NCc2cnc(C(F)(F)F)nc2)C[C@@H]1c1cnc2cnc3[nH]ccc3n12 [Example #4, (1S,3S,4R)-3-(3H-imidazo[1,2-a]pyrrolo[2,3-e]pyrazin-8-yl)-4-methyl-N-((2-(trifluoromethyl)pyrimidin-5-yl)methyl)cyclopentylamine]	–	> 10
1-((1R,3S,4R)-3-(3H-imidazo[1,2-a]pyrrolo[2,3-e]pyrazin-8-yl)-4-methylcyclopentyl)methyl)azetidine-3-carbonitrile and 1-(((1S,3S,4R)-3-(3H-imidazo[1,2-a]pyrrolo[2,3-e]pyrazin-8-yl)-4-methylcyclopentyl)methyl)azetidine-3-carbonitrile [Example #7]	–	> 10
C[C@@H]1C[C@@H](CCC#N)C[C@@H]1c1nnc2cnc3[nH]ccc3n12 [Example #10, 3-((1R,3R,4S)-3-methyl-4-(6H-pyrrolo[2,3-e][1,2,4]triazolo[4,3-a]pyrazin-1-yl)cyclopentyl)propanenitrile]	–	1 to 10
CC[C@@H]1C[C@H](NC(=O)c2noc3c2CCCC3)C[C@@H]1c1nnc2cnc3[nH]ccc3n12 [compound 72, N-((1S,3R,4S)-3-ethyl-4-(6H-pyrrolo[2,3-e][1,2,4]triazolo[4,3-a]pyrazin-1-yl)cyclopentyl)-4,5,6,7-tetrahydrobenzo[d]isoxazole-3-carboxamide]	1 to 10	–
CC[C@@H]1C[C@H](NC(=O)CNC(=O)c2ccco2)C[C@@H]1c1nnc2cnc3[nH]ccc3n12 [compound 48]	1 to 10	–
CC[C@@H]1C[C@H](NC(=O)c2cc(-c3ccco3)on2)C[C@@H]1c1nnc2cnc3[nH]ccc3n12 [compound 73, N-((1S,3R,4S)-3-ethyl-4-(6H-pyrrolo[2,3-e][1,2,4]triazolo[4,3-a]pyrazin-1-yl)cyclopentyl)-5-(furan-2-yl)isoxazole-3-carboxamide]	< 1	–
CC[C@@H]1C[C@H](NC(=O)c2oc3ccccc3c2C)C[C@@H]1c1nnc2cnc3[nH]ccc3n12 [compound 43, N-((1S,3R,4S)-3-ethyl-4-(6H-pyrrolo[2,3-e][1,2,4]triazolo[4,3-a]pyrazin-1-yl)cyclopentyl)-3-methylbenzofuran-2-carboxamide]	1 to 10	–
CC[C@@H]1C[C@H](NC(=O)CCC2CCCCC2)C[C@@H]1c1nnc2cnc3[nH]ccc3n12 [compound 77, 3-cyclohexyl-N-((1S,3R,4S)-3-ethyl-4-(6H-pyrrolo[2,3-e][1,2,4]triazolo[4,3-a]pyrazin-1-yl)cyclopentyl)propanamide]	1 to 10	–
CC[C@@H]1C[C@H](NC(=O)c2ccoc2)C[C@@H]1c1nnc2cnc3[nH]ccc3n12 [compound 56, N-((1S,3R,4S)-3-ethyl-4-(6H-pyrrolo[2,3-e][1,2,4]triazolo[4,3-a]pyrazin-1-yl)cyclopentyl)furan-3-carboxamide]	1 to 10	–
CC[C@@H]1C[C@H](NC(=O)CCc2nc(C)no2)C[C@@H]1c1nnc2cnc3[nH]ccc3n12 [compound 37, N-((1S,3R,4S)-3-ethyl-4-(6H-pyrrolo[2,3-e][1,2,4]triazolo[4,3-a]pyrazin-1-yl)cyclopentyl)-3-(3-methyl-1,2,4-oxadiazol-5-yl)propanamide]	1 to 10	–
CC[C@@H]1C[C@H](NC(=O)/C=C/c2ccc(C)o2)C[C@@H]1c1nnc2cnc3[nH]ccc3n12 [compound 25, (E)-N-((1S,3R,4S)-3-ethyl-4-(6H-pyrrolo[2,3-e][1,2,4]triazolo[4,3-a]pyrazin-1-yl)cyclopentyl)-3-(5-methylfuran-2-yl)acrylamide]	1 to 10	–
C[C@@H]1C[C@@H](N2CCC(C#N)CC2)C[C@@H]1c1cnc2cnc3[nH]ccc3n12 [Example #8, 1-((1R,3S,4R)-3-(3H-imidazo[1,2-a]pyrrolo[2,3-e]pyrazin-8-yl)-4-methylcyclopentyl)piperidine-4-carbonitrile]	–	> 10
CC[C@@H]1C[C@H](NC(=O)Cc2noc3ccccc23)C[C@@H]1c1nnc2cnc3[nH]ccc3n12 [compound 71, 2-(benzo[d]isoxazol-3-yl)-N-((1S,3R,4S)-3-ethyl-4-(6H-pyrrolo[2,3-e][1,2,4]triazolo[4,3-a]pyrazin-1-yl)cyclopentyl)acetamide]	1 to 10	–
C[C@@H]1C[C@H](N2CCC(C#N)CC2)C[C@@H]1c1cnc2cnc3[nH]ccc3n12 [Example #5, 1-((1S,3S,4R)-3-(3H-imidazo[1,2-a]pyrrolo[2,3-e]pyrazin-8-yl)-4-methylcyclopentyl)piperidine-4-carbonitrile]	–	> 10
CC[C@@H]1C[C@H](NC(=O)c2cc3ccccc3o2)C[C@@H]1c1nnc2cnc3[nH]ccc3n12 [compound 57, N-((1S,3R,4S)-3-ethyl-4-(6H-pyrrolo[2,3-e][1,2,4]triazolo[4,3-a]pyrazin-1-yl)cyclopentyl)benzofuran-2-carboxamide]	1 to 10	–
C[C@@H]1C[C@H](N(C)C(=O)c2cocn2)C[C@@H]1c1cnc2cnc3[nH]ccc3n12 [Example #3, N-((1S,3S,4R)-3-(3H-imidazo[1,2-a]pyrrolo[2,3-e]pyrazin-8-yl)-4-methylcyclopentyl)-N-methyloxazole-4-carboxamide]	–	1 to 10
CC[C@@H]1C[C@H](NC(=O)C2(C#N)CC2)C[C@@H]1c1nnc2cnc3[nH]ccc3n12 [compound 54, 1-cyano-N-((1S,3R,4S)-3-ethyl-4-(6H-pyrrolo[2,3-e][1,2,4]triazolo[4,3-a]pyrazin-1-yl)cyclopentyl)cyclopropanecarboxamide]	1 to 10	–
CC[C@@H]1C[C@H](NC(=O)c2cc(C3CC3)on2)C[C@@H]1c1nnc2cnc3[nH]ccc3n12 [compound 59, 5-cyclopropyl-N-((1S,3R,4S)-3-ethyl-4-(6H-pyrrolo[2,3-e][1,2,4]triazolo[4,3-a]pyrazin-1-yl)cyclopentyl)isoxazole-3-carboxamide]	1 to 10	–
CC[C@@H]1C[C@H](NC(=O)c2cnco2)C[C@@H]1c1nnc2cnc3[nH]ccc3n12 [compound 82, N-((1S,3R,4S)-3-ethyl-4-(6H-pyrrolo[2,3-e][1,2,4]triazolo[4,3-a]pyrazin-1-yl)cyclopentyl)oxazole-5-carboxamide]	1 to 10	–
